Measured values from patent US20030224390A1, “Method of identifying conformation-sensitive binding peptides and uses thereof” (Karo Bio AB, priority 2000, published 2003).

Legend:
ERβ = ERβ (Homo sapiens, UniProt Q92731); experiment: Binding of the peptide probes to ERβ in the presence of modulators (Table 15b)
androgen receptor [1] = target: T1, androgen receptor (Homo sapiens, UniProt P10275); experiment: Yeast two-hybrid screening of unbiased X15 peptide library, ligand induced β-galactosidase activity (FIG. 3, Table 503); format: cell-based; set-up: expressed in transfected cells; host or cells: Saccharomyces cerevisiae PJ69-4α; ligand induced β-galactosidase activity, No Lig / ligand induced β-galactosidase activity, DHT / ligand induced β-galactosidase activity, CPA / ligand induced β-galactosidase activity, RU / ligand induced β-galactosidase activity, Test / ligand induced β-galactosidase activity, MPA: unit not given here; details: for ligand induced β-galactosidase activity, CPA / ligand induced β-galactosidase activity, DHT / ligand induced β-galactosidase activity, RU / ligand induced β-galactosidase activity, No Lig: yeast two-hybrid
T1 sequence (P10275 1-920): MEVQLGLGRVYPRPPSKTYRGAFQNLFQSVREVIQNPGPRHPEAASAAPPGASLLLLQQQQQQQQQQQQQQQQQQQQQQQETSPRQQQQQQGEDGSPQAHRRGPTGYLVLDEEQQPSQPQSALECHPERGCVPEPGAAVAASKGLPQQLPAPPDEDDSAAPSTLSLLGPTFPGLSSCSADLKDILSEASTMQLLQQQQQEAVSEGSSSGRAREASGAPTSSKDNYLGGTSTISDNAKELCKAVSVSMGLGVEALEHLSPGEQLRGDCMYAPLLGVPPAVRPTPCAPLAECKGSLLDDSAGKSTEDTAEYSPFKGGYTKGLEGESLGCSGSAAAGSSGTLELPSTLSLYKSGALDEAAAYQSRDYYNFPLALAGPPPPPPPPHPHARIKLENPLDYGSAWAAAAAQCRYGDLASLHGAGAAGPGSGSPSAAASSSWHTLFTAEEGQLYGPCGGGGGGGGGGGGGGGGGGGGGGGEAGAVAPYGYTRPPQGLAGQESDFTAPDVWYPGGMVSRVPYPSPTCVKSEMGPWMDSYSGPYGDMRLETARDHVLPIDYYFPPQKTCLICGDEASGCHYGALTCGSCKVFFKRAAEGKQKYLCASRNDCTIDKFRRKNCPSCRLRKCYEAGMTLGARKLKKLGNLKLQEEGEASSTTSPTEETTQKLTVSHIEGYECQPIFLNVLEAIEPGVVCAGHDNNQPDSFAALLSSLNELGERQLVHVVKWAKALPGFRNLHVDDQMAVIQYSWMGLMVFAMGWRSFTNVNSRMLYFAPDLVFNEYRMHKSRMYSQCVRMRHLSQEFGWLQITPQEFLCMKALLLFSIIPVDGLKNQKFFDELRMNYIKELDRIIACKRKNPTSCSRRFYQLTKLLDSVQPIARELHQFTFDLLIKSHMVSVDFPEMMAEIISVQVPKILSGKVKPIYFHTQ
Description: Our library contained predominantly 15 random amino acid residues/peptide in order to identify motifs that might interact with nuclear receptor domains. If ligand is provided to the cells, one can screen for peptides that interact with the ligand-bound receptor. […] Included at the ends of the oligonucleotide were the synthetic restriction endonuclease cleavage sites, EcoRI or Mfe I (5′ end) and Sal I (3′ end). Oligonucleotides were annealed, then cleaved with excess restriction endonuclease and purified on agarose gels. The purified set of oligonucleotides was subcloned as an in-frame carboxy-terminal fusion to a Gal4 DNA binding domain (plasmid vector pMA424 derivative). […] The transformation mix was divided and grown on plates of selective media containing ligand and 25 mM 3-aminotriazole at 30° C. until colonies appeared in 3-7 days. […] Dihydrotestosterone (DHT) and medroxyprogesterone (MPA) were added to the media at 100 nM to identify peptides that interact with the receptor in the presence of ligand. After colonies appeared they were picked and dispersed into individual wells of a 96-well plate containing rich media (YPD).
To determine ligand dependence, two microliter aliquots were removed from the cell suspension, and arrayed and spotted onto each of two rectangular agar plates, one with 100 nM ligand and one without ligand. Growth was monitored daily.
A secondary test of ligand dependent activation was performed using the integrated GAL4-driven lacZ gene. Cell suspensions of the initial positive clones were diluted 20-fold into 20 microliters of rich media in a microplate and grown overnight at 30° C. in the presence and absence of ligand. Microplates were centrifuged for 5 minutes at 3000 rpm in a swinging table top centrifuge to pellet the yeast cells, and the overlying media was aspirated. […] An OD650 density determination was made to normalize the β-galactosidase activity. β-galactosidase activity was monitored following the addition of buffer containing chlorophenol red-β-galactopyranoside (CPRG) (Boehringer Mannheim) substrate at a final concentration of 0.5 mM. […] The maximum slope value of this measurement was normalized to cell density from the initial OD650 value, and the relative ligand dependence of β-galactosidase was determined by comparing the values plus and minus ligand.
In FIG. 3, all of these ligands were tested. The plasmids from true positives were extracted using standard yeast extraction protocols and re-transformed to verify the positive phenotype.

androgen receptor [2] = target: T1, androgen receptor; format: cell-based; set-up: expressed in transfected cells
Description: We used a mammalian two-hybrid system to determine specificities of the AR-binding peptides previously identified, through screening of the aforementioned yeast library, as ligand-dependent in their binding activity. Ligand was provided to the cells so the interaction could be observed. The human hepatoma cell line, Huh-7, was used as the recipient of two-hybrid vectors, pM and pVP16 (Clontech) (FIGS. 6A and 6B), containing fusions with peptide and AR, respectively. According to Clontech literature, the Clontech vectors pM and VP16 generate fusions of protein X with the GAL4 DNA-BD and fusions of protein Y with the VP16AD, in the Mammalian MM Two-Hybrid Assay Kit (#K1602-1). (Note: pM and VP16 contain unique cloning sites in the same order and reading frame as the DNA-BD and AD, respectively, vectors in the yeast […] Two-Hybrid Systems.) A third vector, pG5CAT, provides a CAT reporter gene under the control of a GAL4-responsive element and minimal promoter of the adenovirus E1b. The three vectors are cotransfected into any suitable mammalian host cell line by standard methods. The interaction between proteins X and Y is then assayed by measuring CAT gene expression by any standard method. In the absence of activation (i.e., no protein-protein interaction), the minimal E1b promoter will not express significant levels of CAT.
Briefly, cells are seeded in a 24-well culture plate to a density of 50-80% confluence in phenol red-free media containing charcoal-dextran stripped fetal bovine serum (10%). Following incubation overnight, cells are transfected with plasmids pM-peptide, pVP16-AR, pCMV-b-gal, and p5XGAL-Luc3 DNAs using lipofectamine 2000 (LifeTech) according to the manufacturer's protocol. Transfections are allowed to proceed for 6 hours and the transfection media is aspirated and replaced with recovery media for 18 hours. Following the recovery period, cells are treated with compound for 24 hours prior to cell harvesting. Cells are washed with PBS and then lysed using the lysis buffer from the Galacto-Light Plus β-galactosidase assay kit (Tropix). Assays for luciferase and β-galactosidase were performed as described by the manufacturer. Peptide/AR interactions are described in terms of the luciferase activity normalized for transfection efficiency using β-galactosidase activity (see FIG. 4A). Two types of useful information arose from these methods: 1) we generated a panel of useful peptide probes to analyze the conformational state of AR, and 2) we “fingerprinted” AR modulators with respect to AR conformation (FIG. 4B). […] FIG. 4B is the converse of 4A. It compares the ability of six ligands (DHT, MPA, CYP, RU486, FLUT and DHEAs to interact with AR in the presence of each of four peptides (D30, 5G11, B8H3 and […]). Thus, it is a “fingerprint” of each of the six ligands using a four peptide panel. (Note that “1269” and D30” refer to the same peptide.)

Sequence of ERβ (Q92731 whole entry, species assumed): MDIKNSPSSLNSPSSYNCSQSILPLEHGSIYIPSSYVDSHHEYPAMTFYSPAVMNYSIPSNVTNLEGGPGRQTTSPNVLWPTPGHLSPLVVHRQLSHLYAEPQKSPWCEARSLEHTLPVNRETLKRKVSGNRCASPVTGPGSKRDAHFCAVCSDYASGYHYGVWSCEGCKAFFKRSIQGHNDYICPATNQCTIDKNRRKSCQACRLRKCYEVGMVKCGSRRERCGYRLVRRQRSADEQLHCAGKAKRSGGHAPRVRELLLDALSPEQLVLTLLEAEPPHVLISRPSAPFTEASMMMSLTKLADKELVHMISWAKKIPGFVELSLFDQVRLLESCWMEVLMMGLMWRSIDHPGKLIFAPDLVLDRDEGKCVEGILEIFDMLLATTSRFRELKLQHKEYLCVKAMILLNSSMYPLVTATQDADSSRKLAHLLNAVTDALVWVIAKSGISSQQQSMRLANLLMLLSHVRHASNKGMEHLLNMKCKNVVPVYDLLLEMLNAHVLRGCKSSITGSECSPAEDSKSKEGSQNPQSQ

Compound	Equiv. (equivalency), peptide probe α/βIII on ERβ (ERβ)	Equiv. (equivalency), peptide probe α/βIV on ERβ (ERβ)	Equiv. (equivalency), peptide probe α/βV on ERβ (ERβ)	Equiv. (equivalency), peptide probe βI on ERβ (ERβ)	Equiv. (equivalency), peptide probe βIII on ERβ (ERβ)	Equiv. (equivalency), peptide probe α/βI on ERβ (ERβ; probe α/βI, positive: % of maximum stimulation by the modulator used to isolate the probe, negative: % of reduction by ICI 182,780)	Fold induction (androgen receptor [1]; untitled table before Table 503, values match DHT / No Lig of Table 503)	ligand induced β-galactosidase activity, CPA (androgen receptor [1])	ligand induced β-galactosidase activity, DHT (androgen receptor [1])	ligand induced β-galactosidase activity, RU (androgen receptor [1])	ligand induced β-galactosidase activity, No Lig (androgen receptor [1])	luciferase normalized to β-galactosidase, CYP. (androgen receptor [2])	luciferase normalized to β-galactosidase, DHT (androgen receptor [2]; mammalian two-hybrid, Huh-7 cells, ligand DHT)	luciferase normalized to β-galactosidase, MPA (androgen receptor [2]; mammalian two-hybrid, Huh-7 cells, ligand MPA)	luciferase normalized to β-galactosidase, RU486 (androgen receptor [2]; mammalian two-hybrid, Huh-7 cells, ligand RU486)	luciferase normalized to β-galactosidase, no compound (androgen receptor [2]; mammalian two-hybrid, Huh-7 cells, no compound)
O=C(c1ccc(OCCN2CCCCC2)cc1)c1c(-c2ccc(O)cc2)sc2cc(O)ccc12 [Raloxifene]	77%	0%	0%	−53%	−71%	–	–	–	–	–	–	–	–	–	–	–
EFPELLAMTRWGRHAALLEPQRLPPPRTTTQPQTEFERMFFFTRPMRTTGLLDLQPS [B2A7]	–	–	–	–	–	–	–	0.2919	1.719	0.5	0.3711	–	–	–	–	–

The next lines start with the values.

Equiv. (equivalency), peptide probe α/βIII on ERβ (ERβ)	Equiv. (equivalency), peptide probe α/βIV on ERβ (ERβ)	Equiv. (equivalency), peptide probe α/βV on ERβ (ERβ)	Equiv. (equivalency), peptide probe βI on ERβ (ERβ)	Equiv. (equivalency), peptide probe βIII on ERβ (ERβ)	Equiv. (equivalency), peptide probe α/βI on ERβ (ERβ; probe α/βI, positive: % of maximum stimulation by the modulator used to isolate the probe, negative: % of reduction by ICI 182,780)	Fold induction (androgen receptor [1]; untitled table before Table 503, values match DHT / No Lig of Table 503)	ligand induced β-galactosidase activity, CPA (androgen receptor [1])	ligand induced β-galactosidase activity, DHT (androgen receptor [1])	ligand induced β-galactosidase activity, RU (androgen receptor [1])	ligand induced β-galactosidase activity, No Lig (androgen receptor [1])	luciferase normalized to β-galactosidase, CYP. (androgen receptor [2])	luciferase normalized to β-galactosidase, DHT (androgen receptor [2]; mammalian two-hybrid, Huh-7 cells, ligand DHT)	luciferase normalized to β-galactosidase, MPA (androgen receptor [2]; mammalian two-hybrid, Huh-7 cells, ligand MPA)	luciferase normalized to β-galactosidase, RU486 (androgen receptor [2]; mammalian two-hybrid, Huh-7 cells, ligand RU486)	luciferase normalized to β-galactosidase, no compound (androgen receptor [2]; mammalian two-hybrid, Huh-7 cells, no compound)	Compound
34%	0%	13%	−62%	−61%	–	–	–	–	–	–	–	–	–	–	–	CCN(CC)CCOc1ccc(C(=C(Cl)c2ccccc2)c2ccccc2)cc1 [Clomiphene]
−57%	−75%	0%	−96%	77%	81%	–	–	–	–	–	–	–	–	–	–	C[C@]12CC[C@@H]3c4ccc(O)cc4CC[C@H]3[C@@H]1C[C@@H](O)[C@@H]2O [Estriol]
–	–	–	–	–	–	22	0.3927	3.807	−0.0	0.1737	10.47	11.6	11.33	3.879	0.1316	EFHSRLRVEVVSWGIGSTCSQANSGRISYDL* [B8H3]
